Reference: patent US5089623A, “Certain imidate insecticides” (Imperial Chemical Industries Plc, priority 1990, dated 1992)

What was measured:
Type in all cases: in vivo
[1] = tested on: Housefly [Musca domestica]; test: Housefly insecticidal test (HF); conditions: per 25 female houseflies, 48 hours
[2] = tested on: Tobacco Budworm [Heliothis virescens (Fabricius)] eggs; test: Tobacco budworm egg test (TBW-E); conditions: percent in solution
[3] = tested on: Cabbage Looper [Trichoplusia ni (Hubner)]; test: Cabbage looper test (CL); conditions: second-instar larvae, 3-5 days, percent in solution
[4] = tested on: Maize weevil [Sitophilus Zeamais (Motschulsky)]; test: Maize weevil test (MW); conditions: adult weevils, treated corn seeds, 48 hours, percent in solution
Description: The compounds in Tables 1 and 2 above were tested for insecticidal activity using the following testing procedures. LC50 values, based on the results of these tests and calculated according to dosage-mortality curves, are expressed in Table 3.
Maize weevil [Sitophilus Zeamais (Motschulsky)]
Test compounds were diluted in a 50:50 acetone:water solution. Four corn seeds [Zea mays (L.)] which had been immersed in test solutions for 2-3 seconds and allowed to dry were placed in containers together with 10 adult weevils. The containers were covered and kept at a temperature of about 25° C. Mortality was recorded after 48 hours. Test concentrations ranged from 0.01% down to that at which 50% mortalilty occurred. The LC50 values are expressed below in Table 3 under the heading "MW" in terms of percent of the test compound in solution.

CC(C)C(=Nc1cccc(OC(F)(F)F)c1)OCc1ccc(F)c(Oc2ccccc2)c1 [Compound 437]
LC50 HF [1]: < 100 µg | LC50 TBW E [2]: 0.025% | LC50 CL [3]: 0.00075% | LC50 MW [4]: > 0.01%

C=C(C)C(=Nc1ccc(F)c(Cl)c1)OCc1cccc(Oc2ccccc2)c1 [Compound 417]
LC50 HF [1]: < 100 µg | LC50 TBW E [2]: 0.04% | LC50 CL [3]: 0.0008% | LC50 MW [4]: < 0.01%

CC(C)C(=Nc1ccc(Br)c(Br)c1)OCc1ccc(F)c(Oc2ccc(F)cc2)c1 [Compound 383]
LC50 HF [1]: < 100 µg | LC50 TBW E [2]: 0.038% | LC50 CL [3]: 0.00029% | LC50 MW [4]: > 0.01%

CC(C)C(=Nc1cc(F)c(Cl)cc1Cl)OCc1ccc(F)c(Oc2ccc(F)cc2)c1 [Compound 292]
LC50 HF [1]: 41 µg | LC50 TBW E [2]: 0.05% | LC50 CL [3]: 0.00075% | LC50 MW [4]: > 0.01%

CC(C)C(=Nc1ccc(C#N)cc1)OCc1cccc(Oc2ccc(Cl)cc2)c1 [Compound 393]
LC50 HF [1]: < 100 µg | LC50 TBW E [2]: > 0.1% | LC50 CL [3]: 0.00037% | LC50 MW [4]: > 0.01%

CC(C)C(=Nc1cccc([N+](=O)[O-])c1)OCc1cccc(Oc2ccccc2)c1 [Compound 302]
LC50 HF [1]: 15 µg | LC50 TBW E [2]: > 0.1% | LC50 CL [3]: 0.003% | LC50 MW [4]: > 0.01%

CC(C)C(=Nc1ccc(I)c(Cl)c1)OCc1cccc(Oc2ccc(F)cc2)c1 [Compound 374]
LC50 HF [1]: < 100 µg | LC50 TBW E [2]: 0.02% | LC50 CL [3]: 0.00058% | LC50 MW [4]: > 0.01%

CC(C)C(=Nc1ccc(OCC(F)(F)F)c(F)c1)OCc1cccc(Oc2ccc(Cl)cc2)c1 [Compound 429]
LC50 HF [1]: > 100 µg | LC50 TBW E [2]: < 0.1% | LC50 CL [3]: 0.0017% | LC50 MW [4]: > 0.01%

CC(C)C(=Nc1cccc(C(F)(F)F)c1)OCc1ccnc(Oc2ccccc2)c1 [Compound 507]
LC50 HF [1]: 93 µg | LC50 TBW E [2]: > 0.1% | LC50 CL [3]: 0.002% | LC50 MW [4]: > 0.01%

CC(C)C(=Nc1cccc(Cl)c1)OCc1ccc(F)c(Oc2ccc(F)cc2)c1 [Compound 341]
LC50 HF [1]: 4 µg | LC50 TBW E [2]: 0.023% | LC50 CL [3]: 0.0005% | LC50 MW [4]: > 0.01%

CC(C)c1ccc(N=C(OCc2cccc(Oc3ccccc3)c2)C2CCC2)cc1 [Compound 339]
LC50 HF [1]: > 100 µg | LC50 TBW E [2]: > 0.1% | LC50 CL [3]: 0.017% | LC50 MW [4]: > 0.01%

CCOc1ccc(N=C(OCc2ccc(F)c(Oc3ccccc3)c2)C(C)C)cc1 [Compound 373]
LC50 HF [1]: < 100 µg | LC50 TBW E [2]: > 0.1% | LC50 CL [3]: > 0.1% | LC50 MW [4]: > 0.01%

CC(C)C(=Nc1ccc(C(F)(F)F)c(Br)c1)OCc1ccc(F)c(Oc2ccccc2)c1 [Compound 434]
LC50 HF [1]: < 100 µg | LC50 TBW E [2]: > 0.1% | LC50 CL [3]: 0.0017% | LC50 MW [4]: 0.009%

Cc1cccc(N=C(OCc2cccc(Oc3ccc(F)cc3)c2)C(C)C)c1 [Compound 405]
LC50 HF [1]: < 100 µg | LC50 TBW E [2]: > 0.1% | LC50 CL [3]: > 0.1% | LC50 MW [4]: > 0.01%

Clc1ccc(N=C(OCc2cccc(Oc3ccccc3)c2)C2CCC2)cc1 [Compound 8]
LC50 HF [1]: 50 µg | LC50 TBW E [2]: > 0.01% | LC50 CL [3]: 0.01% | LC50 MW [4]: > 0.01%

COc1ccc(N=C(OCc2ccc(F)c(Oc3ccccc3)c2)C(C)C)cc1F [Compound 435]
LC50 HF [1]: < 100 µg | LC50 TBW E [2]: 0.04% | LC50 CL [3]: 0.002% | LC50 MW [4]: > 0.01%

Cc1cc(N=C(OCc2ccc(F)c(Oc3ccc(F)cc3)c2)C(C)C)ccc1F [Compound 396]
LC50 HF [1]: < 100 µg | LC50 TBW E [2]: < 0.1% | LC50 CL [3]: 0.0017% | LC50 MW [4]: > 0.01%

CC(C)C(=Nc1ccc(F)c(Cl)c1)OCc1ccnc(Oc2ccccc2)c1 [Compound 510]
LC50 HF [1]: 54 µg | LC50 TBW E [2]: > 0.1% | LC50 CL [3]: 0.017% | LC50 MW [4]: > 0.01%

COc1ccc(N=C(OCc2ccc(F)c(Oc3ccc(Cl)cc3)c2)C(C)C)cc1 [Compound 412]
LC50 HF [1]: < 100 µg | LC50 TBW E [2]: > 0.1% | LC50 CL [3]: > 0.1% | LC50 MW [4]: > 0.01%

Cc1ccc(N=C(OCc2ccc(F)c(Oc3ccc(Cl)cc3)c2)C(C)C)cc1Cl [Compound 404]
LC50 HF [1]: < 100 µg | LC50 TBW E [2]: 0.025% | LC50 CL [3]: > 0.1% | LC50 MW [4]: > 0.01%

CC(C)C(=Nc1cccc(F)c1)OCc1ccc(F)c(Oc2ccc(F)cc2)c1 [Compound 342]
LC50 HF [1]: 4.1 µg | LC50 TBW E [2]: 0.04% | LC50 CL [3]: 0.0008% | LC50 MW [4]: > 0.01%

Cc1cc(N=C(OCc2ccc(F)c(Oc3ccccc3)c2)C(C)C)ccc1F [Compound 400]
LC50 HF [1]: < 100 µg | LC50 TBW E [2]: 0.025% | LC50 CL [3]: 0.0007% | LC50 MW [4]: > 0.01%

CC(C)C(=Nc1ccc(F)c(Cl)c1)OCc1cccc(Oc2cccc(Cl)c2)c1 [Compound 203]
LC50 HF [1]: 43 µg | LC50 TBW E [2]: 0.06% | LC50 CL [3]: 0.0025% | LC50 MW [4]: > 0.01%

CCOc1ccc(N=C(OCc2cccc(Oc3ccccc3)c2)C(C)C)cc1 [Compound 371]
LC50 HF [1]: < 100 µg | LC50 TBW E [2]: > 0.1% | LC50 CL [3]: 0.0022% | LC50 MW [4]: > 0.01%

CC(C)C(=Nc1ccc(OCC(F)(F)F)c(Cl)c1)OCc1cccc(Oc2ccc(Cl)cc2)c1 [Compound 421]
LC50 HF [1]: > 100 µg | LC50 TBW E [2]: < 0.1% | LC50 CL [3]: 0.002% | LC50 MW [4]: > 0.01%

CC(C)C(=Nc1ccc(F)c(Br)c1)OCc1ccc(F)c(Oc2ccc(Cl)cc2)c1 [Compound 379]
LC50 HF [1]: < 100 µg | LC50 TBW E [2]: 0.02% | LC50 CL [3]: 0.00075% | LC50 MW [4]: > 0.01%

COc1ccc(N=C(OCc2ccc(F)c(Oc3ccc(F)cc3)c2)C(C)C)cc1Cl [Compound 408]
LC50 HF [1]: < 100 µg | LC50 TBW E [2]: 0.02% | LC50 CL [3]: 0.0015% | LC50 MW [4]: > 0.01%

CC(C)C(=Nc1ccc(Cl)c(F)c1)OCc1ccc(F)c(Oc2ccc(F)cc2)c1 [Compound 441]
LC50 HF [1]: < 100 µg | LC50 TBW E [2]: 0.016% | LC50 CL [3]: 0.000025% | LC50 MW [4]: 0.006%

Cc1ccc(N=C(OCc2ccc(F)c(Oc3ccc(Cl)cc3)c2)C(C)C)cc1C [Compound 406]
LC50 HF [1]: < 100 µg | LC50 TBW E [2]: < 0.1% | LC50 CL [3]: > 0.1% | LC50 MW [4]: > 0.01%

CC(C)C(=Nc1ccc(Br)cc1)OCc1coc(Cc2ccccc2)c1 [Compound 478]
LC50 HF [1]: 15 µg | LC50 TBW E [2]: > 0.1% | LC50 CL [3]: 0.0037% | LC50 MW [4]: > 0.01%

Cc1cc(N=C(OCc2ccc(F)c(Oc3ccc(Cl)cc3)c2)C(C)C)ccc1Br [Compound 407]
LC50 HF [1]: > 100 µg | LC50 TBW E [2]: 0.05% | LC50 CL [3]: > 0.1% | LC50 MW [4]: > 0.01%

CC(C)C(=Nc1ccc(F)c(Br)c1)OCc1cccc(Oc2ccc(Cl)cc2)c1 [Compound 398]
LC50 HF [1]: < 100 µg | LC50 TBW E [2]: < 0.1% | LC50 CL [3]: < 0.1% | LC50 MW [4]: > 0.01%

COc1ccc(N=C(OCc2ccc(F)c(Oc3ccccc3)c2)C(C)C)cc1Cl [Compound 409]
LC50 HF [1]: < 100 µg | LC50 TBW E [2]: 0.025% | LC50 CL [3]: 0.0017% | LC50 MW [4]: > 0.01%

CC(C)C(=Nc1cccc(C(F)(F)F)c1)OCc1cc(Oc2ccc(Cl)cc2)ccn1 [Compound 509]
LC50 HF [1]: 79 µg | LC50 TBW E [2]: > 0.1% | LC50 CL [3]: 0.0075% | LC50 MW [4]: > 0.01%

COCc1c(F)c(F)c(COC(=Nc2cccc(C(F)(F)F)c2)C(C)C)c(F)c1F [Compound 503]
LC50 HF [1]: 21 µg | LC50 TBW E [2]: 0.08% | LC50 CL [3]: 0.001% | LC50 MW [4]: > 0.01%

CC(C)C(=Nc1ccc(OC(F)(F)C(F)Cl)cc1)OCc1ccc(F)c(Oc2ccccc2)c1 (stereo not drawn) [Compound 419]
LC50 HF [1]: > 100 µg | LC50 TBW E [2]: > 0.1% | LC50 CL [3]: > 0.1% | LC50 MW [4]: > 0.01%

Cc1cc(N=C(OCc2ccc(F)c(Oc3ccc(Cl)cc3)c2)C(C)C)ccc1F [Compound 399]
LC50 HF [1]: < 100 µg | LC50 TBW E [2]: 0.025% | LC50 CL [3]: 0.0012% | LC50 MW [4]: > 0.01%

CC(C)C(=Nc1ccc(OCC(F)(F)F)cc1)OCc1cccc(Oc2ccccc2)c1 [Compound 423]
LC50 HF [1]: > 100 µg | LC50 TBW E [2]: > 0.1% | LC50 CL [3]: 0.002% | LC50 MW [4]: > 0.01%

CC(C)C(=Nc1ccc(Br)c(F)c1)OCc1cccc(Oc2ccc(Cl)cc2)n1 [Compound 551]
LC50 HF [1]: < 100 µg | LC50 TBW E [2]: 0.035% | LC50 CL [3]: 0.00075% | LC50 MW [4]: > 0.01%

C=C(C)C(=Nc1ccc(F)c(Cl)c1)OCc1ccc(F)c(Oc2ccc(Cl)cc2)c1 [Compound 415]
LC50 HF [1]: < 100 µg | LC50 TBW E [2]: 0.035% | LC50 CL [3]: 0.00075% | LC50 MW [4]: > 0.01%

Cc1cc(N=C(OCc2cccc(Oc3ccc(Cl)cc3)c2)C(C)C)ccc1F [Compound 397]
LC50 HF [1]: < 100 µg | LC50 TBW E [2]: < 0.1% | LC50 CL [3]: 0.0019% | LC50 MW [4]: > 0.01%

CC(C)C(=Nc1cccc(OC(F)(F)F)c1)OCc1ccc(F)c(Oc2ccc(Cl)cc2)c1 [Compound 436]
LC50 HF [1]: < 100 µg | LC50 TBW E [2]: < 0.1% | LC50 CL [3]: 0.00075% | LC50 MW [4]: > 0.01%
